US20190275324A1, “METHOD FOR TREATING OR PREVENTING A SICKLE-CELL DISEASE AND SYMPTOMS THEREOF” (DIAVEIN, priority 2016, published 2019)

Key:
[1] = tested on: patients with a severe vaso-occlusive crisis associated with sickle cell disease; experiment: Clinical study of VEST in combination with NSAID for relief of pain in vaso-occlusive crisis (Example 6), 10-cm VAS for pain; type: in vivo, human; settings: all groups also given Perfalgan and Tramadol
Excerpt: The objective of the clinical study was to assess the efficacy of VEST in combination with non-steroid anti-inflammatory drugs to manage pain in adult and paediatric patients experimenting a severe vaso-occlusive crisis associated with sickle cell disease.
27 patients suffering from a sickle-cell disease and experimenting a severe vaso-occlusive crisis, with a pain score of at least 6 in the visual analog scale for pain (VAS pain), were enrolled in the study. The enrolled patients comprised 16 adults (of 19 to 35 years) and 11 children (of 8 to 17 years). 8 patients were of HbSS genotype, 19 patients were of HbSC genotype. The enrolled patients comprised 18 male subjects and 9 female subjects.
After their admission at the hospital, 15 patients received pain killer (Perfalgan) and (Tramadol) drugs and the NSAID Diclofenac and were subjected to VEST treatment for 4 hours, with two electrodes under each calf and two electrodes under each arm of the patient.
2 patients received Pain killer (Perfalgan) and (Tramadol) drug and were subjected to VEST treatment for 4 hours, with two electrodes under each calf and two electrodes under each arm of the patient. These patients were not administered with any NSAID. […]
Pain change in each patient was assessed with a 10-cm visual analog scale (VAS) for pain (e.g. as shown in FIG. 4) every two hours, during 6 hours after the beginning of VEST.

[2] = tested on: patients with acute vaso-occlusive crisis; settings: after 4 hours; patients treated with morphine, Weiner et al.; cited from earlier work

SMILES	mean pain score in VAS ([1]; after 4 hours) [cm]	mean pain score in VAS ([1]; after 6 hours) [cm]	mean pain score in VAS [2]
O=C(O)Cc1ccccc1Nc1c(Cl)cccc1Cl [NSAID alone, Diclofenac]	6	6	
CN1CC[C@]23c4c5ccc(O)c4O[C@H]2[C@@H](O)C=C[C@H]3[C@H]1C5 [morphine]			higher than 6 cm
